Experimental data reported in patent US10544140B2, “Pharmaceutical composition containing, as active ingredient, 7-azaindolin-2-one derivative or pharmaceutically acceptable salt thereof” (LG CHEM, LTD., priority 2015, dated 2020).
Like-named read-outs stand apart in the source and are kept apart here.

Columns and labels:
[1] = tested on: MCF-7 (human breast cancer cell line); test: Cytotoxicity test by MTT assay, MCF-7; format: cell-based; details: Homo sapiens, read-out: Cell viability (% inhibition)
Protocol: (§1) A cytotoxicity test was measured by MTT assay. Each cell line was cultured in a 96-well plate at a density of 1×10^4 cells/well. […] MTT (3-(4,5-dimethylthiazol-2-yl)-2,5-diphenyltetrazolium bromide) solution (5 mg/mL) was added to each well and reacted for 4 hours in an incubator. […] After reacting in an incubator for 30 minutes, the formation of formazan was quantified using a microplate reader at an absorbance of 540 nm. […] At this time, sunitinib was used as a control group. […] The human cancer cell lines used herein are MCF-7 (breast cancer), MDA-MB-231 (breast cancer), HT-29 (colon cancer), DU145 (prostate cancer), U937 (myeloid leukemia), A549 (lung cancer), PANC-1 (pancreatic cancer) and MIA PaCa-2 (pancreatic cancer).

[2] = tested on: PANC-1 (human pancreatic cancer cell line); test: Cytotoxicity test by MTT assay, PANC-1; format: cell-based; details: Homo sapiens, read-out: Cell viability (% inhibition)
Protocol: as §1

DU145 (prostate cancer) = test: Cytotoxicity test by MTT assay, DU145; format: cell-based, human; details: DU-145
Protocol: (§2) A cytotoxicity test was measured by MTT assay. Each cell line was cultured in a 96-well plate at a density of 1×10^4 cells/well. After 24 hours, the culture medium containing 1% FBS (fetal bovine serum) was treated and reacted with compounds or solutions of compounds for 48 hours. MTT (3-(4,5-dimethylthiazol-2-yl)-2,5-diphenyltetrazolium bromide) solution (5 mg/mL) was added to each well and reacted for 4 hours in an incubator. […] After reacting in an incubator for 30 minutes, the formation of formazan was quantified using a microplate reader at an absorbance of 540 nm. […] The human cancer cell lines used herein are MCF-7 (breast cancer), MDA-MB-231 (breast cancer), HT-29 (colon cancer), DU145 (prostate cancer), U937 (myeloid leukemia), A549 (lung cancer), PANC-1 (pancreatic cancer) and MIA PaCa-2 (pancreatic cancer).

[3] = Cytotoxicity test by MTT assay, HEK293 normal cell line; format: cell-based; details: human, HEK293 cells (normal cell line)
Protocol: A cytotoxicity test was measured by MTT assay. Each cell line was cultured in a 96-well plate at a density of 1×10^4 cells/well. After 24 hours, the culture medium containing 1% FBS (fetal bovine serum) was treated and reacted with compounds or solutions of compounds for 48 hours. MTT (3-(4,5-dimethylthiazol-2-yl)-2,5-diphenyltetrazolium bromide) solution (5 mg/mL) was added to each well and reacted for 4 hours in an incubator. […] After reacting in an incubator for 30 minutes, the formation of formazan was quantified using a microplate reader at an absorbance of 540 nm.

HT-29 (colon cancer) = test: Cytotoxicity test by MTT assay, HT-29; format: cell-based, human
Protocol: as §2

[4] = tested on: MDA-MB-231 (breast cancer); test: Cytotoxicity test by MTT assay, MDA-MB-231; format: cell-based, human
Protocol: as §2

A549 (lung cancer) = test: Cytotoxicity test by MTT assay, A549; format: cell-based, human
Protocol: as §2

U937 (myeloid leukemia) = test: Cytotoxicity test by MTT assay, U937; format: cell-based, human
Protocol: as §2

SMILES: Cc1nc2c(c(C)c1O)/C(=C/c1ncc[nH]1)C(=O)N2 [Compound I-33, (Z)-3-((1H-Imidazol-2-yl)methylene)-5-hydroxy-4,6-dimethyl-1H-pyrrolo[2,3-b]pyridin-2(3H)-one]
- cytotoxicity at 30 µM ([1]; MCF7, MCF-7, 30 μM, 48 h): 2.6%
- cytotoxicity at 30 µM ([2]; PANC-1, 30 μM, 48 h): 7.2%

SMILES: Cc1nc2c(c(C)c1O)/C(=C/C1CCCCC1)C(=O)N2 [Compound I-05, (Z)-3-(Cyclohexylmethylene)-5-hydroxy-4,6-dimethyl-1H-pyrrolo[2,3-b]pyridin-2(3H)-one]
- cytotoxicity at 30 µM ([1]; MCF7, MCF-7, 30 μM, 48 h): 10%
- cytotoxicity at 30 µM ([2]; PANC-1, 30 μM, 48 h): 49%

SMILES: Cc1nc2c(c(C)c1O)/C(=C/c1nccs1)C(=O)N2 [Compound I-35, (Z)-5-Hydroxy-4,6-dimethyl-3-(thiazol-2-ylmethylene)-1H-pyrrolo[2,3-b]pyridin-2(3H)-one]
- cytotoxicity at 30 µM ([1]; MCF7, MCF-7, 30 μM, 48 h): 5.6%
- cytotoxicity at 30 µM ([2]; PANC-1, 30 μM, 48 h): 9%

SMILES: COc1cccc(/C=C2\C(=O)Nc3nc(C)c(O)c(C)c32)c1 [Compound I-13, (Z)-5-Hydroxy-3-(3-methoxybenzylidene)-4,6-dimethyl-1H-pyrrolo[2,3-b]pyridin-2(3H)-one]
- cytotoxicity at 30 µM ([1]; MCF7, MCF-7, 30 μM, 48 h): 29.6%
- cytotoxicity at 30 µM ([2]; PANC-1, 30 μM, 48 h): 46.4%

SMILES: Cc1nc2c(c(C)c1O)/C(=C/c1ccco1)C(=O)N2 [Compound I-27, (Z)-3-(Furan-2-ylmethylene)-5-hydroxy-4,6-dimethyl-1H-pyrrolo[2,3-b]pyridin-2(3H)-one]
- cytotoxicity at 30 µM ([1]; MCF7, MCF-7, 30 μM, 48 h): 31.5%
- cytotoxicity at 30 µM ([2]; PANC-1, 30 μM, 48 h): 16.4%

SMILES: COc1ccccc1/C=C1\C(=O)Nc2nc(C)c(O)c(C)c21 [Compound I-12, (Z)-5-hydroxy-3-(2-methoxybenzylidene)-4,6-dimethyl-1H-pyrrolo[2,3-b]pyridin-2(3H)-one]
- cytotoxicity at 30 µM ([1]; MCF7, MCF-7, 30 μM, 48 h): 30.7%
- cytotoxicity at 30 µM ([2]; PANC-1, 30 μM, 48 h): 10.2%

SMILES: Cc1nc2c(c(C)c1O)/C(=C/c1ccc3ccccc3c1)C(=O)N2 [Compound I-20, (Z)-5-Hydroxy-4,6-dimethyl-3-(naphthalen-2-ylmethylene)-1H-pyrrolo[2,3-b]pyridin-2(3H)-one]
- cytotoxicity at 30 µM ([1]; MCF7, MCF-7, 30 μM, 48 h): 30.5%
- cytotoxicity at 30 µM ([2]; PANC-1, 30 μM, 48 h): 28.9%

SMILES: Cc1nc2c(c(C)c1O)/C(=C/c1ccc(F)cc1)C(=O)N2 [Compound I-09, (Z)-3-(4-Fluorobenzylidene)-5-hydroxy-4,6-dimethyl-1H-pyrrolo[2,3-b]pyridin-2(3H)-one]
- cytotoxicity at 30 µM ([1]; MCF7, MCF-7, 30 μM, 48 h): 48.3%
- cytotoxicity at 30 µM ([2]; PANC-1, 30 μM, 48 h): 51.8%

SMILES: Cc1nc2c(c(C)c1O)/C(=C/c1ccc3ccccc3n1)C(=O)N2 [Compound I-24, (Z)-5-Hydroxy-4,6-dimethyl-3-(quinolin-2-ylmethylene)-1H-pyrrolo[2,3-b]pyridin-2(3H)-one]
- cytotoxicity compared with the reference drug sunitinib (DU145 (prostate cancer)): greater than or equal to that of the reference drug sunitinib
- IC50 (DU145 (prostate cancer); Homo sapiens, DU145, 48 h): 1.07 µM
- IC50 at 48 h [3]: 46.8 µM
- cytotoxicity compared with the reference drug sunitinib (HT-29 (colon cancer); HT-29): greater than or equal to that of the reference drug sunitinib
- IC50 (HT-29 (colon cancer); Homo sapiens, HT-29, 48 h): 4.57 µM
- cytotoxicity compared with the reference drug sunitinib [4]: greater than or equal to that of the reference drug sunitinib
- IC50 ([4]; Homo sapiens, MBA-MB-231, 48 h): 2.81 µM
- cytotoxicity compared with the reference drug sunitinib (A549 (lung cancer); A-549): greater than or equal to that of the reference drug sunitinib
- IC50 (A549 (lung cancer); Homo sapiens, A549, 48 h): 4.2 µM
- IC50 (U937 (myeloid leukemia); Homo sapiens, U-937, U937, 48 h): 6.67 µM
- cytotoxicity compared with the reference drug sunitinib (U937 (myeloid leukemia); U937): greater than or equal to that of the reference drug sunitinib

SMILES: Cc1nc2c(c(C)c1O)/C(=C/c1ccc(Cl)cc1)C(=O)N2 [Compound I-10, (Z)-3-(4-Chlorobenzylidene)-5-hydroxy-4,6-dimethyl-1H-pyrrolo[2,3-b]pyridin-2(3H)-one]
- cytotoxicity at 30 µM ([1]; MCF7, MCF-7, 30 μM, 48 h): 51.7%
- cytotoxicity at 30 µM ([2]; PANC-1, 30 μM, 48 h): 44.9%

SMILES: Cc1ccc(/C=C2\C(=O)Nc3nc(C)c(O)c(C)c32)cc1 [Compound I-06, (Z)-5-Hydroxy-4,6-dimethyl-3-(4-methylbenzylidene)-1H-pyrrolo[2,3-b]pyridin-2(3H)-one]
- cytotoxicity at 30 µM ([1]; MCF7, MCF-7, 30 μM, 48 h): 32.3%
- cytotoxicity at 30 µM ([2]; PANC-1, 30 μM, 48 h): 29.1%

SMILES: COc1ccc(/C=C2\C(=O)Nc3nc(C)c(O)c(C)c32)cc1 [Compound I-14, (Z)-5-Hydroxy-3-(4-methoxybenzylidene)-4,6-dimethyl-1H-pyrrolo[2,3-b]pyridin-2(3H)-one]
- cytotoxicity at 30 µM ([1]; MCF7, MCF-7, 30 μM, 48 h): 23.9%
- cytotoxicity at 30 µM ([2]; PANC-1, 30 μM, 48 h): 36.3%

SMILES: Cc1nc2c(c(C)c1O)/C(=C/c1cccs1)C(=O)N2 [Compound I-29, (Z)-5-Hydroxy-4,6-dimethyl-3-(thiophen-2-ylmethylene)-1H-pyrrolo[2,3-b]pyridin-2(3H)-one]
- cytotoxicity at 30 µM ([1]; MCF7, MCF-7, 30 μM, 48 h): 57.8%
- cytotoxicity at 30 µM ([2]; PANC-1, 30 μM, 48 h): 42.2%

SMILES: Cc1nc2c(c(C)c1O)/C(=C/c1c[nH]c3ccccc13)C(=O)N2 [Compound I-26, (Z)-3-((1H-Indol-3-yl)methylene)-5-hydroxy-4,6-dimethyl-1H-pyrrolo[2,3-b]pyridin-2(3H)-one]
- cytotoxicity at 30 µM ([1]; MCF7, MCF-7, 30 μM, 48 h): 2.4%
- cytotoxicity at 30 µM ([2]; PANC-1, 30 μM, 48 h): 17.1%

SMILES: Cc1nc2c(c(C)c1O)/C(=C/c1cccc3[nH]ccc13)C(=O)N2 [Compound I-25, (Z)-3-((1H-Indol-4-yl)methylene)-5-hydroxy-4,6-dimethyl-1H-pyrrolo[2,3-b]pyridin-2(3H)-one]
- cytotoxicity at 30 µM ([1]; MCF7, MCF-7, 30 μM, 48 h): 14.5%
- cytotoxicity at 30 µM ([2]; PANC-1, 30 μM, 48 h): 32.3%

SMILES: Cc1nc2c(c(C)c1O)/C(=C/c1ccccc1O)C(=O)N2 [Compound I-11, (Z)-5-Hydroxy-3-(2-hydroxybenzylidene)-4,6-dimethyl-1H-pyrrolo[2,3-b]pyridin-2(3H)-one]
- cytotoxicity at 30 µM ([1]; MCF7, MCF-7, 30 μM, 48 h): 29.2%
- cytotoxicity at 30 µM ([2]; PANC-1, 30 μM, 48 h): 42%

SMILES: COc1cc(/C=C/C=C2\C(=O)Nc3nc(C)c(O)c(C)c32)ccc1O [Compound I-04, (Z)-5-Hydroxy-3-((E)-3-(4-hydroxy-3-methoxyphenyl)allylidene)-4,6-dimethyl-1H-pyrrolo[2,3-b]pyridin-2(3H)-one]
- cytotoxicity at 30 µM ([1]; MCF7, MCF-7, 30 μM, 48 h): 6.9%
- cytotoxicity at 30 µM ([2]; PANC-1, 30 μM, 48 h): 24.4%

SMILES: COc1cc(/C=C2\C(=O)Nc3nc(C)c(O)c(C)c32)cc(OC)c1OC [Compound I-16, (Z)-5-Hydroxy-4,6-dimethyl-3-(3,4,5-trimethoxybenzylidene)-1H-pyrrolo[2,3-b]pyridin-2(3H)-one]
- cytotoxicity at 30 µM ([1]; MCF7, MCF-7, 30 μM, 48 h): 41.2%
- cytotoxicity at 30 µM ([2]; PANC-1, 30 μM, 48 h): 40.6%

SMILES: Cc1ccsc1/C=C1\C(=O)Nc2nc(C)c(O)c(C)c21 [Compound I-30, (Z)-5-Hydroxy-4,6-dimethyl-3-((3-methylthiophen-2-yl)methylene)-1H-pyrrolo[2,3-b]pyridin-2(3H)-one]
- cytotoxicity at 30 µM ([1]; MCF7, MCF-7, 30 μM, 48 h): 59%
- cytotoxicity at 30 µM ([2]; PANC-1, 30 μM, 48 h): 47.2%

SMILES: Cc1nc2c(c(C)c1O)/C(=C/c1ccccc1[N+](=O)[O-])C(=O)N2 [Compound I-07, (Z)-5-Hydroxy-4,6-dimethyl-3-(2-nitrobenzylidene)-1H-pyrrolo[2,3-b]pyridin-2(3H)-one]
- cytotoxicity at 30 µM ([1]; MCF7, MCF-7, 30 μM, 48 h): 23.9%
- cytotoxicity at 30 µM ([2]; PANC-1, 30 μM, 48 h): 27.8%

SMILES: CC(C)=C/C=C1\C(=O)Nc2nc(C)c(O)c(C)c21 [Compound I-03, (Z)-5-Hydroxy-4,6-dimethyl-3-(3-methylbut-2-enylidene)-1H-pyrrolo[2,3-b]pyridin-2(3H)-one]
- cytotoxicity at 30 µM ([1]; MCF7, MCF-7, 30 μM, 48 h): 6.6%
- cytotoxicity at 30 µM ([2]; PANC-1, 30 μM, 48 h): 37.5%

SMILES: Cc1nc2c(c(C)c1O)/C(=C/c1ccccn1)C(=O)N2 [Compound I-21, (Z)-5-Hydroxy-4,6-dimethyl-3-(pyridin-2-ylmethylene)-1H-pyrrolo[2,3-b]pyridin-2(3H)-one]
- cytotoxicity at 30 µM ([1]; MCF7, MCF-7, 30 μM, 48 h): 28.1%
- cytotoxicity at 30 µM ([2]; PANC-1, 30 μM, 48 h): 29.2%

SMILES: Cc1nc2c(c(C)c1O)/C(=C/c1ccc([N+](=O)[O-])cc1)C(=O)N2 [Compound I-08, (Z)-5-Hydroxy-4,6-dimethyl-3-(4-nitrobenzylidene)-1H-pyrrolo[2,3-b]pyridin-2(3H)-one]
- cytotoxicity at 30 µM ([1]; MCF7, MCF-7, 30 μM, 48 h): 16.3%
- cytotoxicity at 30 µM ([2]; PANC-1, 30 μM, 48 h): 32.5%

SMILES: Cc1nc2c(c(C)c1O)/C(=C/c1c[nH]cn1)C(=O)N2 [Compound I-34, (Z)-3-((1H-Imidazol-4-yl)methylene)-5-hydroxy-4,6-dimethyl-1H-pyrrolo[2,3-b]pyridin-2(3H)-one]
- cytotoxicity at 30 µM ([1]; MCF7, 48 h): 4.1%
- cytotoxicity at 30 µM ([2]; PANC-1, 48 h): 4.5%

SMILES: CCC(/C=C1\C(=O)Nc2nc(C)c(O)c(C)c21)CC [Compound I-02, (Z)-3-(2-Ethylbutylidene)-5-hydroxy-4,6-dimethyl-1H-pyrrolo[2,3-b]pyridin-2(3H)-one]
- cytotoxicity at 30 µM ([1]; MCF7, MCF-7, 30 μM, 48 h): 30.5%
- cytotoxicity at 30 µM ([2]; PANC-1, 30 μM, 48 h): 44.9%
